Test results as given in PubChem BioAssay (NCI).
In brackets after ≈: the same amount, converted by molar mass.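 Following 48 hours of exposure in 96-well plates, responses at five concentrations were used to interpolate endpoints linearly. GI50 is the concentration that inhibits growth by half. TGI is the concentration that stops growth completely.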

Key:
Test in all cases: inhibition of tumour cell growth, NCI panel, 48 h
UACC-62 melanoma = tested on: UACC-62 melanoma
HS 578T breast = tested on: HS 578T breast
KM12 colon = tested on: KM12 colon
SNB-75 CNS = tested on: SNB-75 CNS
CAKI-1 renal = tested on: CAKI-1 renal
HCC-2998 colon = tested on: HCC-2998 colon
MOLT-4 leukemia = tested on: MOLT-4 leukemia
MALME-3M melanoma = tested on: MALME-3M melanoma
OVCAR-5 ovarian = tested on: OVCAR-5 ovarian
HOP-92 NSCLC = tested on: HOP-92 NSCLC
SF-268 CNS = tested on: SF-268 CNS
SN12C renal = tested on: SN12C renal
HCT-15 colon = tested on: HCT-15 colon
HOP-62 NSCLC = tested on: HOP-62 NSCLC
MCF7 breast = tested on: MCF7 breast
M14 melanoma = tested on: M14 melanoma
UACC-257 melanoma = tested on: UACC-257 melanoma
NCI-H460 lung = tested on: NCI-H460 lung
NCI-H522 lung = tested on: NCI-H522 lung
NCI-H23 lung = tested on: NCI-H23 lung
OVCAR-8 ovarian = tested on: OVCAR-8 ovarian
UO-31 renal = tested on: UO-31 renal
COLO 205 colon = tested on: COLO 205 colon
SK-MEL-2 melanoma = tested on: SK-MEL-2 melanoma
RPMI-8226 leukemia = tested on: RPMI-8226 leukemia
A549 NSCLC = tested on: A549 NSCLC
EKVX NSCLC = tested on: EKVX NSCLC
NCI/ADR-RES ovarian = tested on: NCI/ADR-RES ovarian
HT29 colon = tested on: HT29 colon
SF-539 CNS = tested on: SF-539 CNS
DU-145 prostate = tested on: DU-145 prostate
ACHN renal = tested on: ACHN renal
SK-OV-3 ovarian = tested on: SK-OV-3 ovarian
HCT-116 colon = tested on: HCT-116 colon
SR leukemia = tested on: SR leukemia
SK-MEL-28 melanoma = tested on: SK-MEL-28 melanoma
LOX IMVI melanoma = tested on: LOX IMVI melanoma
PC-3 prostate = tested on: PC-3 prostate
786-0 renal = tested on: 786-0 renal
OVCAR-4 ovarian = tested on: OVCAR-4 ovarian
SF-295 CNS = tested on: SF-295 CNS
NCI-H226 lung = tested on: NCI-H226 lung
A498 renal = tested on: A498 renal
U251 CNS = tested on: U251 CNS
HL-60(TB) leukemia = tested on: HL-60(TB) leukemia
K-562 leukemia = tested on: K-562 leukemia
TK-10 renal = tested on: TK-10 renal
SK-MEL-5 melanoma = tested on: SK-MEL-5 melanoma
BT-549 breast = tested on: BT-549 breast
SNB-19 CNS = tested on: SNB-19 CNS
IGROV1 ovarian = tested on: IGROV1 ovarian
SW-620 colon = tested on: SW-620 colon
OVCAR-3 ovarian = tested on: OVCAR-3 ovarian
T-47D breast = tested on: T-47D breast
MDA-MB-231 breast = tested on: MDA-MB-231 breast

COc1ccc(N(C)c2ncnc3occ(C)c23)cc1
GI50 (UACC-62 melanoma): < 10 nM
TGI (UACC-62 melanoma): > 100000 nM
GI50 (HS 578T breast): < 10 nM
TGI (HS 578T breast): < 10 nM
GI50 (KM12 colon): < 10 nM
GI50 (SNB-75 CNS): < 10 nM
TGI (SNB-75 CNS): > 52000 nM
GI50 (CAKI-1 renal): < 10 nM
TGI (CAKI-1 renal): > 100000 nM
GI50 (HCC-2998 colon): < 10 nM
TGI (HCC-2998 colon): 46.3 nM
GI50 (MOLT-4 leukemia): < 10 nM
TGI (MOLT-4 leukemia): 48.1 nM
GI50 (MALME-3M melanoma): 38700 nM
TGI (MALME-3M melanoma): > 100000 nM
GI50 (OVCAR-5 ovarian): < 11.3 nM
TGI (OVCAR-5 ovarian): > 100000 nM
GI50 (HOP-92 NSCLC): 62.5 nM
TGI (HOP-92 NSCLC): > 100000 nM
GI50 (SF-268 CNS): 10.1 nM
TGI (SF-268 CNS): > 62300 nM
GI50 (SN12C renal): < 10 nM
TGI (SN12C renal): > 100000 nM
GI50 (HCT-15 colon): < 10 nM
TGI (HOP-62 NSCLC): > 100000 nM
GI50 (MCF7 breast): < 10 nM
TGI (MCF7 breast): > 100000 nM
GI50 (M14 melanoma): < 10 nM
TGI (M14 melanoma): > 100000 nM
GI50 (UACC-257 melanoma): 29600 nM
TGI (UACC-257 melanoma): > 100000 nM
GI50 (NCI-H460 lung): < 10 nM
GI50 (NCI-H522 lung): < 10 nM
TGI (NCI-H522 lung): < 10 nM
GI50 (NCI-H23 lung): < 10 nM
TGI (NCI-H23 lung): > 100000 nM
GI50 (OVCAR-8 ovarian): < 10 nM
TGI (OVCAR-8 ovarian): > 100000 nM
GI50 (UO-31 renal): < 10 nM
TGI (UO-31 renal): > 100000 nM
GI50 (COLO 205 colon): < 10 nM
TGI (COLO 205 colon): < 10.5 nM
GI50 (SK-MEL-2 melanoma): < 10 nM
TGI (SK-MEL-2 melanoma): 58700 nM
GI50 (RPMI-8226 leukemia): < 10 nM
TGI (RPMI-8226 leukemia): < 10 nM
GI50 (A549 NSCLC): < 10 nM
TGI (A549 NSCLC): > 100000 nM
GI50 (EKVX NSCLC): < 10 nM
TGI (EKVX NSCLC): > 100000 nM
GI50 (NCI/ADR-RES ovarian): < 10 nM
TGI (NCI/ADR-RES ovarian): > 100000 nM
GI50 (HT29 colon): < 10 nM
TGI (HT29 colon): 16300 nM
GI50 (SF-539 CNS): < 10 nM
TGI (SF-539 CNS): < 10 nM
GI50 (DU-145 prostate): < 10 nM
TGI (DU-145 prostate): 20.8 nM
GI50 (ACHN renal): 19.3 nM
TGI (ACHN renal): > 100000 nM
GI50 (SK-OV-3 ovarian): < 10 nM
TGI (SK-OV-3 ovarian): > 100000 nM
GI50 (HCT-116 colon): < 10 nM
TGI (HCT-116 colon): 197 nM
GI50 (SR leukemia): < 10 nM
TGI (SR leukemia): 236 nM
GI50 (SK-MEL-28 melanoma): < 10 nM
TGI (SK-MEL-28 melanoma): > 100000 nM
GI50 (LOX IMVI melanoma): < 10 nM
TGI (LOX IMVI melanoma): > 100000 nM
GI50 (PC-3 prostate): < 10 nM
TGI (PC-3 prostate): > 51800 nM
GI50 (786-0 renal): < 10 nM
TGI (786-0 renal): > 100000 nM
GI50 (OVCAR-4 ovarian): < 31.1 nM
TGI (OVCAR-4 ovarian): > 100000 nM
GI50 (SF-295 CNS): < 10 nM
TGI (SF-295 CNS): > 100000 nM
GI50 (NCI-H226 lung): < 10 nM
TGI (NCI-H226 lung): 76.1 nM
GI50 (A498 renal): < 10 nM
TGI (A498 renal): < 10 nM
GI50 (U251 CNS): < 10 nM
TGI (U251 CNS): 11900 nM
GI50 (HL-60(TB) leukemia): < 10 nM
TGI (HL-60(TB) leukemia): < 10 nM
GI50 (K-562 leukemia): < 10 nM
GI50 (TK-10 renal): 55600 nM
TGI (TK-10 renal): > 100000 nM
GI50 (SK-MEL-5 melanoma): < 10 nM
TGI (SK-MEL-5 melanoma): < 14.9 nM
GI50 (BT-549 breast): < 24.4 nM
TGI (BT-549 breast): > 62400 nM
GI50 (SNB-19 CNS): < 10 nM
TGI (SNB-19 CNS): > 100000 nM
GI50 (IGROV1 ovarian): < 10 nM
TGI (IGROV1 ovarian): > 100000 nM
GI50 (SW-620 colon): < 10 nM
TGI (SW-620 colon): > 100000 nM

OCCN1CN(CCO)CN(c2nc(N3CN(CCO)CN(CCO)C3)nc(N3CN(CCO)CN(CCO)C3)n2)C1
GI50 (UACC-62 melanoma): 0.991 ng/mL
TGI (UACC-62 melanoma): 3.31 ng/mL
GI50 (HS 578T breast): 3.08 ng/mL
TGI (HS 578T breast): 9.43 ng/mL
GI50 (MOLT-4 leukemia): 1.23 ng/mL
TGI (MOLT-4 leukemia): 4.78 ng/mL
GI50 (HOP-92 NSCLC): 1.85 ng/mL
TGI (HOP-92 NSCLC): 4.52 ng/mL
TGI (SF-268 CNS): 2.04 ng/mL
GI50 (SN12C renal): 6.3 ng/mL
TGI (SN12C renal): 7.22 ng/mL
TGI (MCF7 breast): 0.69 ng/mL
GI50 (M14 melanoma): 1.36 ng/mL
TGI (M14 melanoma): 3.55 ng/mL
GI50 (UACC-257 melanoma): 1.42 ng/mL
TGI (UACC-257 melanoma): 3.14 ng/mL
GI50 (NCI-H460 lung): 0.92 ng/mL
TGI (NCI-H460 lung): 3.85 ng/mL (≈ 6.42 nM)
GI50 (NCI-H522 lung): 1.04 ng/mL
TGI (NCI-H522 lung): 2.91 ng/mL
GI50 (NCI-H23 lung): 1.42 ng/mL
TGI (NCI-H23 lung): 4.39 ng/mL
TGI (OVCAR-8 ovarian): 13.3 ng/mL
GI50 (UO-31 renal): 1.5 ng/mL
TGI (UO-31 renal): 4.4 ng/mL
TGI (RPMI-8226 leukemia): 0.63 ng/mL
TGI (A549 NSCLC): 69.5 ng/mL
GI50 (EKVX NSCLC): 1.16 ng/mL
TGI (EKVX NSCLC): 2.87 ng/mL
GI50 (NCI/ADR-RES ovarian): 0.867 ng/mL
TGI (NCI/ADR-RES ovarian): 3.98 ng/mL
TGI (HT29 colon): 0.63 ng/mL
TGI (ACHN renal): 1.64 ng/mL
GI50 (SK-OV-3 ovarian): 1.39 ng/mL
TGI (SK-OV-3 ovarian): 4.64 ng/mL
TGI (SR leukemia): 0.63 ng/mL
GI50 (OVCAR-3 ovarian): 2.2 ng/mL (≈ 3.66 nM)
TGI (OVCAR-3 ovarian): 6300 ng/mL (≈ 10500 nM)
TGI (PC-3 prostate): 3.51 ng/mL
GI50 (786-0 renal): 0.631 ng/mL
TGI (786-0 renal): 0.968 ng/mL
GI50 (OVCAR-4 ovarian): 1.69 ng/mL
TGI (OVCAR-4 ovarian): 4.06 ng/mL
TGI (NCI-H226 lung): 0.63 ng/mL
GI50 (A498 renal): 1.61 ng/mL
TGI (A498 renal): 4.96 ng/mL
GI50 (T-47D breast): 1.06 ng/mL (≈ 1.76 nM)
TGI (T-47D breast): 4.92 ng/mL (≈ 8.19 nM)
GI50 (TK-10 renal): 2.05 ng/mL
TGI (TK-10 renal): 18.3 ng/mL
GI50 (MDA-MB-231 breast): 0.776 ng/mL (≈ 1.29 nM)
TGI (MDA-MB-231 breast): 1.83 ng/mL (≈ 3.04 nM)
GI50 (SK-MEL-5 melanoma): 0.891 ng/mL
TGI (SK-MEL-5 melanoma): 1.74 ng/mL
TGI (BT-549 breast): 1.55 ng/mL
GI50 (SNB-19 CNS): 1.08 ng/mL
TGI (SNB-19 CNS): 63 ng/mL
GI50 (IGROV1 ovarian): 1.55 ng/mL
TGI (IGROV1 ovarian): 4.61 ng/mL
TGI (SW-620 colon): 1.04 ng/mL
